The source of these data is US8198279B2, “Pyrido[2,3-b]pyrazin-8-substituted compounds and their use” (Institute of Cancer Research: Royal Cancer Hospital (The), priority 2007, dated 2012).

The IC50 is the midpoint of a concentration-inhibition curve. Lower therefore signals inhibition by little substance.

The target of this experiment is T1, B-RAF (Homo sapiens, UniProt P15056, V600E).
T1 construct: made in house
Kind of experiment: DELFIA Kinase Assay. Format: biochemical. Particulars: 100 μM ATP, GST-MEK substrate. The method, then: Biological Methods—DELFIA Kinase Assay
Compounds were assessed by a kinase assay performed according to the following protocol.
DKB1 (DKB with B-RAF and MEK Protein):
Combine 4950 μL of DKB and 50 μL of 2.5 mg/ml GST-MEK stock (to give […] of MEK per 40 μL). Then add 22.5 μL of B-RAF to give ˜0.2 μL of B-RAF per 40 μL.
100 mM stock, dilute to 500 μM to give 100 μM final concentration in assay.
• 1. Preblock wells with 5% milk in TBS for 1 hour. • 2. Wash wells with 3× with 200 μL TBS. • 3. Plate out 40 μL of DKB1 for all inhibitors (test compounds), DMSO control, and optionally other control compounds. • 4. Plate out 40 μL of DKB2 for BO and EV wells. • 5. Add inhibitors (test compounds) at 0.5 μL per well according to desired plate layout. • 6. Add 0.5 μL DMSO to vehicle control wells. • 7. Add 2 μL of B-RAF to BO and EV wells. • 8. Pre-incubate with inhibitors (test compounds) for 10 minutes at room temperature with shaking. • 9. Add 10 μL of 500 μM ATP stock, in DKB, to give 100 μM assay concentration. • 10. Seal plates with TopSeal and incubate at room temperature with shaking for 45 minutes. • 11. Wash plates 3× with 200 μL 0.1% Tween20/Water to terminate reaction. • 12. Add 50 μL per well of antibody mix and incubate for 1 hour at room temperature with shaking. • 13. Wash plates 3× with 200 μL 0.1% Tween20/Water. • 14. Add 100 μL DELFIA enhancement solution per well, cover in foil, and incubate at room temperature for 30 minutes with shaking. • 15. Read on Victor using Europium protocol.
Values for the blank (Empty Vector) are subtracted from all values. The DMSO controls are set as 100% activity and assay points (the response) are calculated as a percentage of the DMSO control. Data are plotted using Graphpad Prism software and a non-linear regression line is calculated using a variable slope sigmoidal dose-response equation (Y=Bottom+(Top−Bottom)/(1+10^((LogEC50−X)*HillSlope)) where X is the logarithm of concentration. Y is the response). The IC50 generated by this procedure is the concentration of the drug that produces a percentage control fluorescence value midway between the saturation, and zero-effect plateaus. Three independent assays are usually performed and the mean IC50 is reported.

Where “and” joins values, the source holds several entries; their conditions need not be identical. Equal values may be shown once.

T1 sequence (P15056 whole entry V600E): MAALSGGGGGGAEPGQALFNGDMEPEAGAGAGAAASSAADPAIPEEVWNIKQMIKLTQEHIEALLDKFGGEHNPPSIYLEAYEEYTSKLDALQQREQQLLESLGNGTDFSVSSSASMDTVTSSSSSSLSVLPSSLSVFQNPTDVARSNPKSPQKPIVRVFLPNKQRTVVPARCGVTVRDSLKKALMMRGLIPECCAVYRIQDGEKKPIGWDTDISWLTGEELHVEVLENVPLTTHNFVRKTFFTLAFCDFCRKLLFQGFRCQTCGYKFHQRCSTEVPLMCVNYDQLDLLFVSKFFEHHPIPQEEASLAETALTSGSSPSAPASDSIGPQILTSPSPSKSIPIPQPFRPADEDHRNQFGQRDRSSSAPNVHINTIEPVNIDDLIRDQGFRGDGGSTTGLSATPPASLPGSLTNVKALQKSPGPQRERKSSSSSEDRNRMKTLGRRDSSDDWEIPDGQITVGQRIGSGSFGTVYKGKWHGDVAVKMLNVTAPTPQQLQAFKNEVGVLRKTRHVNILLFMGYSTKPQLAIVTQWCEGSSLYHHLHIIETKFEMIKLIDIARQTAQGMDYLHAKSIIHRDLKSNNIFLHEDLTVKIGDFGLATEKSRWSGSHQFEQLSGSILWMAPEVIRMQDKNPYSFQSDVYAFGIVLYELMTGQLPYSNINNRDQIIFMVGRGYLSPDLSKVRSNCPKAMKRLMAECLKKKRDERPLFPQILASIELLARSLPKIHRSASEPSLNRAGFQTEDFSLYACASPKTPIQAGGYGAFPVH

In the case of `O=C(Nc1ccc(Oc2ccnc3nc(N4CCOCC4)cnc23)cc1F)Nc1cc(C(F)(F)F)ccc1F` [AA-054, 1-(2-Fluoro-4-(3-morpholinopyrido[2,3-b]pyrazin-8-yloxy)phenyl)-3-(2-fluoro-5-(trifluoromethyl)phenyl)urea], the IC50 was less than 100 nM.

`Cc1ccc(-n2nc(C(C)(C)C)cc2NC(=O)Nc2ccc(Oc3ccnc4[nH]c(=O)c(C)nc34)c3ccccc23)cc1` [AA-011, 1-(3-tert-butyl-1-p-tolyl-1H-pyrazol-5-yl)-3-(4-(2-methyl-3-oxo-3,4-dihydropyrido[2,3-b]pyrazin-8-yloxy)naphthalen-1-yl)urea] returned a half-maximal inhibitory concentration (IC50) of less than 100 nM.

As for `Nc1nc2c(Oc3ccc(NC(=O)Nc4cc(C(F)(F)F)ccc4F)c(F)c3)ccnc2[nH]c1=O` [AA-044, 1-(4-(2-amino-3-oxo-3,4-dihydropyrido[2,3-b]pyrazin-8-yloxy)-2-fluorophenyl)-3-(2-fluoro-5-(trifluoromethyl)phenyl)urea], the IC50 was less than 100 nM.

As for `CN1CCN(c2cnc3c(Oc4ccc(NC(=O)Nc5cc(C(F)(F)F)ccc5F)c(F)c4)ccnc3n2)CC1` [AA-056, 1-(2-Fluoro-4-(3-(4-methylpiperazin-1-yl)pyrido[3,2-b]pyrazin-8-yloxy)phenyl)-3-(2-fluoro-5-(trifluoromethyl)phenyl)urea], the IC50 is < 1000 nM and 100 to 1000 nM.

`Cc1nc2c(Oc3ccc(NC(=O)Nc4cc(C(C)(C)C)nn4-c4ccccc4)c4ccccc34)ccnc2[nH]c1=O` [AA-009, 1-(3-tert-butyl-1-phenyl-1H-pyrazol-5-yl)-3-(4-(2-methyl-3-oxo-3,4-dihydropyrido[2,3-b]pyrazin-8-yloxy)naphthalen-1-yl)urea]: the IC50 was less than 100 nM.

In turn, `O=C(Nc1cccc(Oc2ccnc3[nH]c(=O)cnc23)c1)c1cccc(OC(F)(F)F)c1` [AA-002, N-(3-(3-oxo-3,4-dihydropyrido[2,3-b]pyrazin-8-yloxy)phenyl)-3-(trifluoro-methoxy)benzamide] came in with an IC50 of less than 100 nM.

As for `Cc1nc2c(Oc3ccc(NC(=O)Nc4cc(C(F)(F)F)ccc4F)c4ccccc34)ccnc2[nH]c1=O` [AA-014, 1-(2-fluoro-5-(trifluoromethyl)phenyl)-3-(4-(2-methyl-3-oxo-3,4-dihydropyrido[2,3-b]pyrazin-8-yloxy)naphthalen-1-yl)urea], the IC50 is less than 100 nM.

`O=C(Nc1ccc(Oc2ccnc3[nH]c(=O)cnc23)cc1F)Nc1cc(C(F)(F)F)ccc1F` [AA-026, 1-(2-Fluoro-5-(trifluoromethyl)phenyl)-3-(2-fluoro-4-(3-oxo-3,4-dihydropyrido[2,3-b]pyrazin-8-yloxy)phenyl)urea] displayed an IC50 of less than 100 nM.

In the case of `CC(C)(C)c1cccc(C(=O)Nc2cccc(Oc3ccnc4ncc(=O)[nH]c34)c2)c1` [AA-029, 3-tert-butyl-N-(3-(2-oxo-1,2-dihydropyrido[2,3-b]pyrazin-8-yloxy)phenyl)benzamide], the IC50 was less than 100 nM.

In the case of `CC(C)(C)c1cc(NC(=O)Nc2ccc(Oc3ccnc4[nH]c(=O)cnc34)cc2F)n(-c2ccccc2)n1` [AA-019, 1-(3-tert-butyl-1-phenyl-1H-pyrazol-5-yl)-3-(2-fluoro-4-(3-oxo-3,4-dihydropyrido[3,2-b]pyrazin-8-yloxy)phenyl)urea], the IC50 was less than 100 nM.

Turning to `CSc1cc(Oc2ccnc3[nH]c(=O)c(=O)[nH]c23)ccc1NC(=O)Nc1cc(C(F)(F)F)ccc1F` [AA-052, 1-(4-(2,3-dioxo-1,2,3,4-tetrahydropyrido[2,3-b]pyrazin-8-yloxy)-2-(methylthio)phenyl)-3-(2-fluoro-5-(trifluoromethyl)phenyl)urea], the half-inhibitory concentration (IC50) is less than 100 nM.

Compound `Cc1nc2c(Oc3ccc(NC(=O)Nc4cc(C(F)(F)F)ccc4F)c(F)c3)ccnc2[nH]c1=O` [AA-028, 1-(2-Fluoro-4-(2-methyl-3-oxo-3,4-dihydropyrido[2,3-b]pyrazin-8-yloxy)phenyl)-3-(2-fluoro-5-(trifluoromethyl)phenyl)urea] returned an IC50 of less than 100 nM.

`CSc1cc(Oc2ccnc3[nH]c(=O)c(=O)[nH]c23)ccc1NC(=O)Nc1ccc(Cl)c(C(F)(F)F)c1` [AA-051, 1-(4-chloro-3-(trifluoromethyl)phenyl)-3-(4-(2,3-dioxo-1,2,3,4-tetrahydropyrido[2,3-b]pyrazin-8-yloxy)-2-(methylthio)phenyl)urea] returned an IC50 of less than 100 nM.

`CC(C)(C)c1cccc(C(=O)Nc2cccc(Oc3ccnc4[nH]c(=O)cnc34)c2)c1` [AA-003, 3-tert-butyl-N-(3-(3-oxo-3,4-dihydropyrido[2,3-b]pyrazin-8-yloxy)phenyl)benzamide] registered an IC50 of less than 100 nM.

With `CSc1cc(Oc2ccnc3[nH]c(=O)cnc23)ccc1NC(=O)Nc1cc(C(C)(C)C)nn1-c1ccc(C)cc1` [AA-017, 1-(3-tert-butyl-1-p-tolyl-1H-pyrazol-5-yl)-3-(2-(methylthio)-4-(3-oxo-3,4-dihydropyrido[2,3-b]pyrazin-8-yloxy)phenyl)urea], the half-inhibitory concentration (IC50) is less than 100 nM.

`O=C(Nc1ccc(Oc2ccnc3ncc(=O)[nH]c23)cc1F)Nc1cc(C(F)(F)F)ccc1F` [AA-047] returned an IC50 of less than 100 nM.

`Cc1nc2c(Oc3cccc(NC(=O)c4cccc(OC(F)(F)F)c4)c3)ccnc2[nH]c1=O` [AA-004] displayed an IC50 of less than 100 nM.

Regarding `O=C(Nc1cc(C(F)(F)F)ccc1F)Nc1ccc(Oc2ccnc3ncc(=O)[nH]c23)c2ccccc12` [AA-038, 1-(2-fluoro-5-(trifluoromethyl)phenyl)-3-(4-(2-oxo-1,2-dihydropyrido[2,3-b]pyrazin-8-yloxy)naphthalen-1-yl)urea], the half-inhibitory concentration (IC50) was < 1000 nM and 100 to 1000 nM.

In the case of `Cc1ccc(-n2nc(C(C)(C)C)cc2NC(=O)Nc2ccc(Oc3ccnc4ncc(=O)[nH]c34)cc2)cc1` [AA-040, 1-(3-tert-butyl-1-p-tolyl-1H-pyrazol-5-yl)-3-(4-(2-oxo-1,2-dihydropyrido[2,3-b]pyrazin-8-yloxy)phenyl)urea], the IC50 is 100 to 1000 nM.

For the compound `CSc1cc(Oc2ccnc3ncc(=O)[nH]c23)ccc1NC(=O)Nc1cc(C(F)(F)F)ccc1F` [AA-046, 1-(2-fluoro-5-(trifluoromethyl)phenyl)-3-(2-(methylthio)-4-(2-oxo-1,2-dihydropyrido[2,3-b]pyrazin-8-yloxy)phenyl)urea], the half-maximal inhibitory concentration (IC50) was < 1000 nM and 100 to 1000 nM.

On to `CC(C)(C)c1cc(NC(=O)c2cccc(Oc3ccnc4[nH]c(=O)cnc34)c2)n(-c2ccccc2)n1` [AA-001, N-(3-tert-butyl-1-phenyl-1H-pyrazol-5-yl)-3-(3-oxo-3,4-dihydropyrido[2,3-b]pyrazin-8-yloxy)benzamide], for which the IC50 was < 1000 nM and 100 to 1000 nM.

Consider `CC(C)(C)c1cc(NC(=O)Nc2ccc(Oc3ccnc4ncc(=O)[nH]c34)c3ccccc23)n(-c2ccccc2)n1` [AA-034, 1-(3-tert-butyl-1-phenyl-1H-pyrazol-5-yl)-3-(4-(2-oxo-1,2-dihydropyrido[2,3-b]pyrazin-8-yloxy)naphthalen-1-yl)urea], for which the IC50 was < 1000 nM and 100 to 1000 nM.

`O=C(Nc1ccc(Cl)c(C(F)(F)F)c1)Nc1ccc(Oc2ccnc3[nH]c(=O)cnc23)cc1F` [AA-025, 1-(4-Chloro-3-(trifluoromethyl)phenyl)-3-(2-fluoro-4-(3-oxo-3,4-dihydropyrido[2,3-b]pyrazin-8-yloxy)phenyl)urea]: the IC50 is less than 100 nM.

`CSc1cc(Oc2ccnc3[nH]c(=O)cnc23)ccc1NC(=O)Nc1cc(C(F)(F)F)ccc1F` [AA-024, 1-(2-fluoro-5-(trifluoromethyl)phenyl)-3-(2-(methylthio)-4-(3-oxo-3,4-dihydropyrido[3,2-b]pyrazin-8-yloxy)phenyl)urea] registered an IC50 of less than 100 nM.

In the case of `O=C(Nc1cccc(Oc2ccnc3ncc(=O)[nH]c23)c1)c1cccc(OC(F)(F)F)c1` [AA-030, N-(3-(2-oxo-1,2-dihydropyrido[2,3-b]pyrazin-8-yloxy)phenyl)-3-(trifluoromethoxy)benzamide], the half-inhibitory concentration (IC50) is < 1000 nM and 100 to 1000 nM.

Regarding `Cc1ccc(-n2nc(C(C)(C)C)cc2NC(=O)Nc2ccc(Oc3ccnc4[nH]c(=O)cnc34)cc2)cc1` [AA-016, 1-(3-tert-butyl-1-p-tolyl-1H-pyrazol-5-yl)-3-(4-(3-oxo-3,4-dihydropyrido[2,3-b]pyrazin-8-yloxy)phenyl)urea], the 50% inhibitory concentration (IC50) was < 1000 nM and 100 to 1000 nM and 252 nM.

`O=C(Nc1ccc(Oc2ccnc3[nH]c(=O)c(=O)[nH]c23)cc1)Nc1ccc(Cl)c(C(F)(F)F)c1` [AA-050, 1-(4-chloro-3-(trifluoromethyl)phenyl)-3-(4-(2,3-dioxo-1,2,3,4-tetrahydropyrido[2,3-b]pyrazin-8-yloxy)phenyl)urea]: the IC50 is less than 100 nM.

`Cc1nc2c(Oc3cccc(NC(=O)c4cccc(C(C)(C)C)c4)c3)ccnc2[nH]c1=O` [AA-005, 3-tert-butyl-N-(3-(2-methyl-3-oxo-3,4-dihydropyrido[2,3-b]pyrazin-8-yloxy)phenyl)benzamide] gave an IC50 of less than 100 nM.
